Columns and labels:
[1] = molecular target: Carbonic anhydrase 9 (Homo sapiens, UniProt Q16790)
[2] = molecular target: Carbonic anhydrase 13 (Mus musculus, UniProt Q9D6N1)
[3] = molecular target: T1, Carbonic anhydrase 15 (Mus musculus, UniProt Q99N23)
T1 sequence (Q99N23 whole entry): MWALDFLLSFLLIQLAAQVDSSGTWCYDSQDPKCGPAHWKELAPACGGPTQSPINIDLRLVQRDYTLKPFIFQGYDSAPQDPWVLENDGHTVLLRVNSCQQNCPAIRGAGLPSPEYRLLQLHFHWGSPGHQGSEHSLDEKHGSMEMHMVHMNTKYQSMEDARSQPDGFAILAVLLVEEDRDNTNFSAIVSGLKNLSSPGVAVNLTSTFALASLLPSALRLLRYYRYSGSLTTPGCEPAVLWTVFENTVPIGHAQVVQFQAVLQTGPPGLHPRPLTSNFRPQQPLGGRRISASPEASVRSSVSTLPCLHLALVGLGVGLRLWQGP

[4] = molecular target: T2, Carbonic anhydrase 2 (Homo sapiens, UniProt P00918)
[5] = molecular target: Carbonic anhydrase 3 (Homo sapiens, UniProt P07451)
Sequence of Carbonic anhydrase 3 (P07451 whole entry): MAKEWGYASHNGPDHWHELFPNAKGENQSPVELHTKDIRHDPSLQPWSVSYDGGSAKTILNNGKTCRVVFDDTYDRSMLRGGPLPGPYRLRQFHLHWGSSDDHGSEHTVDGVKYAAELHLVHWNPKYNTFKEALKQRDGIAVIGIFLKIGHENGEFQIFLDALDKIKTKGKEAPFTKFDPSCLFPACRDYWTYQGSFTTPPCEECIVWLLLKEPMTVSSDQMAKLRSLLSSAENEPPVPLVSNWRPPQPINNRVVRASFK

[6] = molecular target: Carbonic anhydrase 4 (Homo sapiens, UniProt P22748)
Sequence of Carbonic anhydrase 4 (P22748 whole entry): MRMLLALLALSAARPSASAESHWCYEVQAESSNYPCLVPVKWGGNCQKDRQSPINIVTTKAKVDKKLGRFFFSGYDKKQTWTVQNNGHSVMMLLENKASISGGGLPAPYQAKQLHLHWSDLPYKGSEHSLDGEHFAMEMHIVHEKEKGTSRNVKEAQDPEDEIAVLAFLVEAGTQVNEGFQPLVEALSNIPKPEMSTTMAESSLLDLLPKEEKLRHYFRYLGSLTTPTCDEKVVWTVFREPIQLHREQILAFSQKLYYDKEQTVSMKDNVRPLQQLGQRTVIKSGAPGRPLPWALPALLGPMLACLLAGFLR

[7] = molecular target: Carbonic anhydrase 5A, mitochondrial (Homo sapiens, UniProt P35218)
Sequence of Carbonic anhydrase 5A, mitochondrial (P35218 whole entry): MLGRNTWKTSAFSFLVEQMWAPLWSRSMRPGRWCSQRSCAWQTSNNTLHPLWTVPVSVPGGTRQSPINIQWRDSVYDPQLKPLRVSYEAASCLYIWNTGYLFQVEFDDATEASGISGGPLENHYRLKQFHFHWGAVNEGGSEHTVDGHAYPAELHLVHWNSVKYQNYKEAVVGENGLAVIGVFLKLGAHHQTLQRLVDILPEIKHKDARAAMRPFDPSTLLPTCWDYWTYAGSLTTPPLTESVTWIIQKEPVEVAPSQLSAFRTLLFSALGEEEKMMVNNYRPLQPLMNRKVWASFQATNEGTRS

[8] = molecular target: Carbonic anhydrase 5B, mitochondrial (Homo sapiens, UniProt Q9Y2D0)
Sequence of Carbonic anhydrase 5B, mitochondrial (Q9Y2D0 whole entry): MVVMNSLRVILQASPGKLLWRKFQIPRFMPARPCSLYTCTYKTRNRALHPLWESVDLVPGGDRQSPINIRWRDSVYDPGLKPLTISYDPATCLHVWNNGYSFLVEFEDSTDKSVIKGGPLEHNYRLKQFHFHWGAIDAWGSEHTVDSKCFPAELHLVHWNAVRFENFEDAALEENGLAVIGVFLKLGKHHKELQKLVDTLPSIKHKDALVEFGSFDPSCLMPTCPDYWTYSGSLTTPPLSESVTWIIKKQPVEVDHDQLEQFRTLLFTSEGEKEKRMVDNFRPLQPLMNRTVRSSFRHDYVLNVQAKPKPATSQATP

[9] = molecular target: Carbonic anhydrase 6 (Homo sapiens, UniProt P23280)
Sequence of Carbonic anhydrase 6 (P23280 whole entry): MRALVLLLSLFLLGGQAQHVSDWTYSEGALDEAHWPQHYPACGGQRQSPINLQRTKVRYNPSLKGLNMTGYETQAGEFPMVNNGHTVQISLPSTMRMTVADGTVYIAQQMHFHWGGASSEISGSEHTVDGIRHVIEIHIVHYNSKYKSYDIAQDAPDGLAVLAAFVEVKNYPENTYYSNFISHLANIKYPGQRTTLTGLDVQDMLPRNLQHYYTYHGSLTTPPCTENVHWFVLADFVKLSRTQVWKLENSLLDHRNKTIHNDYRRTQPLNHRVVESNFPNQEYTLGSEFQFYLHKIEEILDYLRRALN

[10] = molecular target: Carbonic anhydrase 7 (Homo sapiens, UniProt P43166)
Sequence of Carbonic anhydrase 7 (P43166 whole entry): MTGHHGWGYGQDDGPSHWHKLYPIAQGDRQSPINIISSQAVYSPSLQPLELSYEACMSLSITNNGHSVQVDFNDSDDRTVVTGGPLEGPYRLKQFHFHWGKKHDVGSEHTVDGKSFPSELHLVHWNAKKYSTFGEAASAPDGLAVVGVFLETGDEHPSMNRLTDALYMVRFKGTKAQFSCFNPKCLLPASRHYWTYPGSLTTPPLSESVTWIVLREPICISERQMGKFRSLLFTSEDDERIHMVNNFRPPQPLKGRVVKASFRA

[11] = molecular target: Carbonic anhydrase 12 (Homo sapiens, UniProt O43570)
Sequence of Carbonic anhydrase 12 (O43570 whole entry): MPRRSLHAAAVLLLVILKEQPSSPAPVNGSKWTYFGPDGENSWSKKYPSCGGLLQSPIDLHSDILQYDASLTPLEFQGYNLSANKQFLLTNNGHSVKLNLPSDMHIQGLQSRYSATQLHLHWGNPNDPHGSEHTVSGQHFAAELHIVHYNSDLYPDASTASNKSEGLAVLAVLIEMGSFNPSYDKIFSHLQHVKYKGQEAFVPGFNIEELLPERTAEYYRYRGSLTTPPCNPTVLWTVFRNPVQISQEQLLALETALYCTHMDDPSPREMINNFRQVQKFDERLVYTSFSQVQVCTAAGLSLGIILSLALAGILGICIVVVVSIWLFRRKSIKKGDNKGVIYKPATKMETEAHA

[12] = molecular target: Carbonic anhydrase 14 (Homo sapiens, UniProt Q9ULX7)
Sequence of Carbonic anhydrase 14 (Q9ULX7 whole entry): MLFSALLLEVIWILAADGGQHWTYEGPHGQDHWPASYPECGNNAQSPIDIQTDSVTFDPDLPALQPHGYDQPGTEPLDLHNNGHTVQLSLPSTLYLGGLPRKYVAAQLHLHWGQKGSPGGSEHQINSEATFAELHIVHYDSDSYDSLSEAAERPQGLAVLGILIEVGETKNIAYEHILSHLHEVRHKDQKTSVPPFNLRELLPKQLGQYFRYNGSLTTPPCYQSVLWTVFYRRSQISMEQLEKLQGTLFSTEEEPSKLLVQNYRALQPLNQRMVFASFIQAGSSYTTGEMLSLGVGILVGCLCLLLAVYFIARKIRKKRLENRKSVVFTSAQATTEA

[13] = molecular target: T2, Carbonic anhydrase 2; remark: listed apart in the source

Sequence of Carbonic anhydrase 13 (Q9D6N1 whole entry): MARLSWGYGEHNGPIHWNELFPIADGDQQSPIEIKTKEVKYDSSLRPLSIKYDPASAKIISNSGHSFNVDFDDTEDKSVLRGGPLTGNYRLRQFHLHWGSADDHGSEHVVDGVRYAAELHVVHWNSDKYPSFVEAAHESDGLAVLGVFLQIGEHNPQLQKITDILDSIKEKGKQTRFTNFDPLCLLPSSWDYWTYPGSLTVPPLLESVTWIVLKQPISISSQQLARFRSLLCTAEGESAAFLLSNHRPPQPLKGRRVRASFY

| SMILES | Ki [1] [µM] | Ki [2] [µM] | Ki [3] [µM] | Ki [4] [µM] | Ki [5] [µM] | Ki [6] [µM] | Ki [7] [µM] | Ki [8] [µM] | Ki [9] [µM] | Ki [10] [µM] | Ki [11] [µM] | Ki [12] [µM] | Ki [13] [µM] |
| --- | --- | --- | --- | --- | --- | --- | --- | --- | --- | --- | --- | --- | --- |
| O=c1ccc2cc(CO)ccc2o1 | 8.4 | 0.047 | 7.4 | – | – | – | – | – | – | – | – | – | – |
| O=c1ccc2cc(C[N+]34CN5CN(CN(C5)C3)C4)ccc2o1 | 3 | 3.8 | – | – | – | – | – | – | – | – | – | – | – |
| COc1cccc2cc(C(=O)O)c(=O)oc12 | 5.4 | – | – | – | – | – | – | – | – | – | – | – | – |
| O=C(O)c1cc2ccccc2oc1=O [COUMARIN-3-CARBOXYLIC ACID] | 6.5 | 20.3 | 5.6 | > 500 | 6.6 | 3.8 | 9 | 6.8 | 31.3 | 5.1 | 2.9 | 7.4 | – |
| COc1cc2oc(=O)ccc2cc1[C@@H](O)CC(C)C | – | 9.9 | 93.1 | – | – | – | – | – | – | – | – | – | – |
| O=C(O)c1cc2ccccc2sc1=O | – | 5.6 | 4.8 | – | > 500 | – | – | – | 8.8 | – | – | – | – |
| CCOc1ccc2ccc(=O)oc2c1 | 1.6 | 27.4 | 76.3 | – | 29 | 22.7 | 7.3 | 60.9 | 5.8 | 7.2 | 4.7 | 4.7 | – |
| CCOC(=O)c1cc2cc(CO)ccc2oc1=O | 6.2 | – | – | 24.6 | 60.9 | 0.048 | 3 | 2.9 | 1.5 | 0.045 | 25.6 | 4.6 | 213 |
| NCc1ccc2oc(=O)ccc2c1 | 8.4 | 0.04 | – | – | – | – | – | – | – | – | – | – | – |
| O=C(O)c1cc2cc(CO)ccc2oc1=O | – | 3.1 | 8.6 | – | – | – | – | – | – | – | – | – | – |
| O=c1ccc2ccccc2o1 [COUMARIN] | – | – | – | – | 5.6 | 62.2 | – | – | – | 3.3 | – | – | – |
| CCCCOc1ccc2ccc(=O)oc2c1 [7-BUTOXYCOUMARIN] | 4.9 | 6.1 | 65.2 | – | – | – | 9 | – | – | – | – | – | – |
| COc1ccc2c(C(=O)O)cc(=O)oc2c1 | 4.1 | 0.045 | – | – | – | – | – | – | – | – | – | – | – |
| COC(=O)c1cc2cc(CO)ccc2oc1=O | 8.7 | 7.4 | 7.4 | – | – | 6.5 | – | – | – | – | – | – | – |
| Cc1ccc2oc(=O)c(C(=O)O)cc2c1 | 0.048 | – | – | – | > 500 | – | – | – | 31.7 | 29.6 | – | – | – |
| COc1ccc2oc(=O)c(C(=O)O)cc2c1 | 5.7 | 8.1 | 7.2 | 13.4 | 9 | 4.9 | 8.7 | 7.6 | 10.5 | 4.9 | 6.8 | 39.6 | 0.059 |
| CCCOc1ccc2ccc(=O)oc2c1 [7-PROPOXYCOUMARIN] | – | 6.6 | – | – | > 500 | 24.6 | – | – | – | – | – | – | – |
| O=c1ccc2ccc(CCc3ccccc3)cc2o1 | 5.8 | 7.3 | 44.5 | – | – | – | – | – | 8.5 | – | – | – | – |
| COc1ccc2ccc(=O)oc2c1 [HERNIARIN] | – | – | > 500 | – | 161 | 7.8 | > 500 | – | 61.2 | 9.1 | – | – | – |
| CCOC(=O)c1cc2ccc(OC)cc2oc1=O | – | 0.045 | 6.6 | – | 71.7 | 7.2 | – | 8 | 42 | – | – | – | – |

Reference: ChEMBL document CHEMBL1156762, “Deciphering the mechanism of carbonic anhydrase inhibition with coumarins and thiocoumarins” (J Med Chem, 2010)
